Values quoted from earlier work as cited in patent US20220331342A1, “TREATMENT OF TRAUMATIC ENCEPHALOPATHY BY FIBROBLASTS AND THERAPEUTIC ADJUVANTS” (FIGENE, LLC, priority 2019, published 2022).

How the values were obtained:
[1] = system: SOD1 mutant mice; conditions: single therapy
[2] = system: mixed spinal cord (SC) cultures; conditions: excitotoxins

SMILES	neuronal survival on treatment with MAPK inhibitors [2]	further results
Nc1nc2ccc(OC(F)(F)F)cc2s1 [Riluzole, riluzole]	–	onset of disease [1]: without affecting
COc1cccc(-c2cc(=O)c3ccccc3o2)c1N [PD98059]	not	–
CN(C)c1ccc(O)c2c1C[C@H]1C[C@H]3[C@H](N(C)C)C(O)=C(C(N)=O)C(=O)[C@@]3(O)C(O)=C1C2=O [Minocycline, minocycline]	–	first-pass metabolism when absorbed from the human gastrointestinal tract: substantial first-pass metabolism
C[S+]([O-])c1ccc(-c2nc(-c3ccncc3)c(-c3ccc(F)cc3)[nH]2)cc1 (stereo not shown) [SB203580]	increased neuronal survival	–
